Data published in patent US20030215564A1, “Method and apparatus for coating an endoprosthesis” (priority 2002, published 2003).

Legend:
Assay type in all cases: physicochemical
[1] = Effect of crimping on amount of paclitaxel on manually coated stents (HPLC); conditions: manual coating, after crimping
Excerpt: Prior to being deployed inside a blood vessel, some vascular stents must be crimped onto a balloon-tipped catheter. Once the stent is positioned on the catheter, the catheter-stent assembly is advanced in the blood vessel to the site of obstruction. The balloon is then expanded, which deploys the stent in its proper position.
Since the manual coating method leads to uneven, fragile coating (see Examples 1-3), it seemed likely that the process of crimping would exacerbate the problem of flaking and drug loss. To demontstrate this problem, the amount of paclitaxel on stents before and after crimping was determined. […] Each stent was then removed from the reservoir, shaken briskly, and allowed to dry.

[2] = Amount of paclitaxel deposited on Palmaz-Schatz stents, manual coating method (HPLC)
Experimental: In this example, Palmaz-Schatz stents were coated with paclitaxel using a manual method. The amount of paclitaxel deposited was then determined.
Each stent was then removed from the reservoir, shaken briskly, and allowed to dry. […] The solvent system consisted of 45% acetonitrile and 55% water delivered by a pair of Gilson 305/306 pumps with a flow rate of 1.5 ml/minute.

[3] = Effect of stent expansion on paclitaxel content of spin-coated stents (HPLC); conditions: spin-coated 12,000 RPM two seconds, 44 mg/ml ethanolic paclitaxel
Excerpt: After a stent is crimped onto a catheter as in example 4, it is ready for deployment in the body. The stent is properly positioned with a catheter, and is then expanded, for example by inflation of a balloon tip around which the stent is mounted. The balloon inflation expands the stent and forces it into proper position in the wall of the hollow organ. This has an additional physical impact on the stent, and has the potential to further degrade its coating.

[4] = Effect of crimping on amount of paclitaxel on spin-coated stents (HPLC)
Excerpt: Each stent was then removed from the reservoir, shaken briskly, and allowed to dry.

Amount of drug—crimped (mean ± standard deviation) ([1]; paclitaxel 37 mg/ml): 57.9 ± 33.0 µg
Amount of drug—crimped (mean ± standard deviation) ([1]; paclitaxel 42 mg/ml): 127.1 ± 34.6 µg
Amount of drug—crimped (mean ± standard deviation) ([1]; paclitaxel 66 mg/ml): 106.3 ± 53.8 µg
Amount of drug deposited (mean ± standard deviation) ([2]; paclitaxel 13 mg/ml in 95% ethanol): 19.5 ± 7.7 µg
Amount of drug deposited (mean ± standard deviation) ([2]; paclitaxel 27 mg/ml in 95% ethanol): 59.8 ± 17.6 µg
Amount of drug deposited (mean ± standard deviation) ([2]; paclitaxel 37 mg/ml in 95% ethanol): 80.4 ± 27.7 µg
Amount of drug deposited (mean ± standard deviation) ([2]; paclitaxel 42 mg/ml in 95% ethanol): 141.3 ± 43.0 µg
Amount of drug deposited (mean ± standard deviation) ([2]; paclitaxel 66 mg/ml in 95% ethanol): 198.3 ± 72.0 µg
paclitaxel amount, expanded stent ([3]; crimp-mounted, expanded in water): 26.9 µg
mean paclitaxel amount, unexpanded stents ([3]; unexpanded): 32.8±5.9 μg/stent
Amount of drug—crimped (mean ± standard deviation) ([4]; paclitaxel 18 mg/ml): 6.4 ± 2.1 µg
Amount of drug—crimped (mean ± standard deviation) ([4]; paclitaxel 28 mg/ml): 12.6 ± 1.2 µg
Structure (SMILES): CC(=O)O[C@H]1C(=O)[C@@]2(C)[C@H]([C@H](OC(=O)c3ccccc3)[C@]3(O)C[C@H](OC(=O)[C@H](O)[C@@H](NC(=O)c4ccccc4)c4ccccc4)C(C)=C1C3(C)C)[C@]1(OC(C)=O)CO[C@@H]1C[C@@H]2O [Paclitaxel, paclitaxel]
